Source: patent publication US9085555B2, “Complement pathway modulators and uses thereof” (priority 2011, dated 2015)

Molecular target: Factor D (Homo sapiens (Human), UniProt P00746)
Assay: biochemical
Format: biochemical
Settings: read-out: IC50

Sequence of Factor D (P00746 26-253): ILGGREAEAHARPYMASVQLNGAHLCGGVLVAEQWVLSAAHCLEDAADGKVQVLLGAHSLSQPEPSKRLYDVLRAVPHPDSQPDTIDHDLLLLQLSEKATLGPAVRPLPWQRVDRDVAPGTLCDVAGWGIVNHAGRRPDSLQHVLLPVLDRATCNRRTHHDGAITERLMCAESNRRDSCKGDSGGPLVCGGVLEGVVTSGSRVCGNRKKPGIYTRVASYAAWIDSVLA

SMILES | IC50
NC(=O)n1cc(NC(=O)N2[C@@H]3C[C@@H]3C[C@H]2C(=O)N[C@H](CO)c2cccc(Br)c2)c2ccccc21 [Example 217, (1R,3S,5R)-2-Azabicyclo[3.1.0]hexane-2,3-dicarboxylic acid 3-{[(S)-1-(3-bromo-phenyl)-2-hydroxy-ethyl]-amide} 2-[(1-carbamoyl-1H-indol-3-yl)-amide]] | 41 nM
NC(=O)n1cc(NC(=O)N2C[C@@H](N)C[C@H]2C(=O)NCc2cccc(-c3ccc(Cl)s3)c2)c2ccccc21 [Example 41, (2S,4S)-4-Amino-pyrrolidine-1,2-dicarboxylic acid 1-[(1-carbamoyl-1H-indol-3-yl)-amide] 2-[3-(5-chloro-thiophen-2-yl)-benzylamide]] | 3200 nM
COCCN(C)Cc1cc(Cl)c(F)c(CNC(=O)[C@@H]2C[C@@H](F)CN2C(=O)Nc2cn(C(N)=O)c3ccccc23)c1 [Example 4, (2S,4R)-4-Fluoro-pyrrolidine-1,2-dicarboxylic acid 1-[(1-carbamoyl-1H-indol-3-yl)-amide] 2-(3-chloro-2-fluoro-5-{[(2-methoxy-ethyl)-methyl-amino]-methyl}-benzylamide)] | 3980 nM
CC(=O)c1cn(CC(=O)N2[C@@H]3C[C@@H]3C[C@H]2C(=O)NCc2cccc(Cl)c2F)c2ccccc12 [Example 510, (1R,3S,5R)-2-[2-(3-Acetyl-indol-1-yl)-acetyl]-2-aza-bicyclo[3.1.0]hexane-3-carboxylic acid 3-chloro-2-fluoro-benzylamide] | 16 nM
NC(=O)n1cc(NC(=O)N2CC(F)(F)C[C@H]2C(=O)NCc2cccc(Cl)c2F)c2ccccc21 [Example 301, (S)-4,4-Difluoro-pyrrolidine-1,2-dicarboxylic acid 1-[(1-carbamoyl-1H-indol-3-yl)-amide] 2-(3-chloro-2-fluoro-benzylamide)] | 95 nM
CC(=O)c1cn(CC(=O)N2C[C@H](F)C[C@H]2C(=O)NCc2cccc(Cl)c2F)c2ccc(OCc3ccccc3)cc12 [Example 508, (2S,4R)-1-[2-(3-Acetyl-5-benzyloxy-indol-1-yl)-acetyl]-4-fluoro-pyrrolidine-2-carboxylic acid 3-chloro-2-fluoro-benzylamide] | 12 nM
CC(=O)c1nn(CC(=O)N2C[C@H](F)C[C@H]2C(=O)NCc2cccc(Cl)c2F)c2cnc(C)cc12 [Example 626, (2S,4R)-1-[2-(3-Acetyl-5-methyl-pyrazolo[3,4-c]pyridin-1-yl)-acetyl]-4-fluoro-pyrrolidine-2-carboxylic acid 3-chloro-2-fluoro-benzylamide] | 36 nM
Cc1ccc(CNC(=O)[C@@H]2C[C@H](N)CN2C(=O)Nc2cn(C(N)=O)c3ccccc23)cc1 [Example 43, (2S,4S)-4-Amino-pyrrolidine-1,2-dicarboxylic acid 1-[(1-carbamoyl-1H-indol-3-yl)-amide] 2-(4-methyl-benzylamide)] | 7750 nM
COc1ccc2c(C(N)=O)cn(CC(=O)N3C[C@H](F)C[C@H]3C(=O)NCc3cccc(Cl)c3F)c2c1 [Example 499, 1-{2-[(2S,4R)-2-(3-Chloro-2-fluoro-benzylcarbamoyl)-4-fluoro-pyrrolidin-1-yl]-2-oxo-ethyl}-6-methoxy-1H-indole-3-carboxylic acid amide] | 36 nM
NC(=O)n1cc(NC(=O)N2[C@@H]3C[C@@H]3C[C@H]2C(=O)Nc2ncccc2F)c2ccccc21 [Example 172, (1R,3S,5R)-2-Aza-bicyclo[3.1.0]hexane-2,3-dicarboxylic acid 2-[(1-carbamoyl-1H-indol-3-yl)-amide] 3-[(3-fluoro-pyridin-2-yl)-amide]] | 1050 nM
NC(=O)c1nn(CC(=O)N2[C@@H]3C[C@@H]3C[C@H]2C(=O)Nc2cccc(-c3ncccc3Cl)c2F)c2cnccc12 [Example 688, 1-(2-{(1R,3S,5R)-3-[3-(3-Chloro-pyridin-2-yl)-2-fluoro-phenylcarbamoyl]-2-aza-bicyclo[3.1.0]hex-2-yl}-2-oxo-ethyl)-1H-pyrazolo[3,4-c] pyridine-3-carboxylic acid amide] | 10 nM
NC(=O)n1cc(NC(=O)N2CCC3C[C@@]32C(=O)Nc2cccc(OC(F)(F)F)c2)c2ccccc21 (stereo partly drawn) [Example 307, (1S,5R)-2-Aza-bicyclo[3.1.0]hexane-1,2-dicarboxylic acid 2-[(1-carbamoyl-1H-indol-3-yl)-amide] 1-[(3-trifluoromethoxy-phenyl)-amide]] | 13300 nM
NC(=O)n1cc(NC(=O)N2C[C@@H](N)C[C@H]2C(=O)NC2CCCN(c3ccccn3)C2)c2ccccc21 (stereo partly drawn) [Example 78, (2S,4S)-4-Amino-pyrrolidine-1,2-dicarboxylic acid 1-[(1-carbamoyl-1H-indol-3-yl)-amide] 2-[(3,4,5,6-tetrahydro-2H-[1,2′]bipyridinyl-3-yl)-amide]] | 10400 nM
Cc1cc2c(C(N)=O)nn(CC(=O)N3[C@@H]4C[C@@H]4C[C@H]3C(=O)Nc3cccc(Br)n3)c2cn1 [Example 734, 1-{2-[(1R,3S,5R)-3-(6-Bromo-pyridin-2-ylcarbamoyl)-2-aza-bicyclo[3.1.0]hex-2-yl]-2-oxo-ethyl}-5-methyl-1H-pyrazolo [3,4-c]pyridine-3-carboxylic acid amide] | 4 nM
COc1ccc2c(c1)c(C(C)=O)cn2CC(=O)N1CCCC[C@H]1C(=O)NCc1cccc(Cl)c1F [Example 501, (S)-1-[2-(3-Acetyl-5-methoxy-indol-1-yl)-acetyl]-piperidine-2-carboxylic acid 3-chloro-2-fluoro-benzylamide] | 471 nM
NC(=O)n1cc(NC(=O)N2C[C@@H](N)C[C@H]2C(=O)NCc2ccccc2F)c2ccccc21 [Example 49, (2S,4S)-4-Amino-pyrrolidine-1,2-dicarboxylic acid 1-[(1-carbamoyl-1H-indol-3-yl)-amide] 2-(2-fluoro-benzylamide)] | 900 nM
CC(=O)NC[C@@]1(F)C[C@@H](C(=O)NCc2cccc(Cl)c2F)N(C(=O)Nc2cn(C(N)=O)c3ccccc23)C1 [Example 221, (2S,4S)-4-(Acetylamino-methyl)-4-fluoro-pyrrolidine-1,2-dicarboxylic acid 1-[(1-carbamoyl-1H-indol-3-yl)-amide] 2-(3-chloro-2-fluoro-benzylamide)] | 23 nM
CC(=O)c1cn(CC(=O)N2[C@@H]3C[C@@H]3C[C@H]2C(=O)NCc2cccc(Cl)c2F)c2cc(OCc3ccccc3)ccc12 [Example 536, (1R,3S,5R)-2-[2-(3-Acetyl-6-benzyloxy-indol-1-yl)-acetyl]-2-aza-bicyclo[3.1.0]hexane-3-carboxylic acid 3-chloro-2-fluoro-benzylamide] | 121 nM
CC(=O)n1cc(NC(=O)N2[C@@H]3C[C@@H]3C[C@H]2C(=O)N[C@H](CN(C)C)c2cccc(Cl)c2F)c2ccccc21 [Example 281, (1R,3S,5R)-2-Aza-bicyclo[3.1.0]hexane-2,3-dicarboxylic acid 2-[(1-acetyl-1H-indol-3-yl)-amide] 3-{[(S)-1-(3-chloro-2-fluoro-phenyl)-2-dimethylamino-ethyl]-amide}] | 18 nM
CNC(=O)n1cc(NC(=O)N2[C@@H]3C[C@@H]3C[C@H]2C(=O)N[C@H](CO)c2cccc(Cl)c2F)c2ccccc21 [Example 287, (1R,3S,5R)-2-Azabicyclo[3.1.0]hexane-2,3-dicarboxylic acid 3-{[(S)-1-(3-chloro-2-fluoro-phenyl)-2-hydroxy-ethyl]-amide}2-[(1-methylcarbamoyl-1H-indol-3-yl)-amide]] | 112 nM
